Experimental data: PMC6192554, “In vitro toxicity and efficacy of verdinexor, an exportin 1 inhibitor, on opportunistic viruses affecting immunocompromised individuals” (PLoS ONE, 2018)

Tests used:
[1] = Cytotoxicity in HeLa cells (MTS); assay type: cell-based; details: human
Procedure: Cytotoxicity assays: Concurrent assessment of cytotoxicity was also performed for each study in the same cell line and with the same compound exposure. For AdV cytotoxicity assay, at 6d post-infection plates were stained with tetrazolium-based MTS (CellTiter96 Reagent, Promega) and the microtiter plates were read spectrophotometrically at 490/650nm (Molecular Devices).

Murine CMV strain Smith = assay: MCMV plaque reduction assay in MEF cells; assay type: cell-based, murine cytomegalovirus; details: primary screen
Procedure: Murine CMV strain Smith was obtained from Earl Kern and assayed in mouse embryonic fibroblast cells (MEF) immortalized by telomerization. Guinea pig CMV strain 22122 was obtained from the ATCC and assayed in primary guinea pig lung cells (GPL). Both MEF and GPL cells were prepared at the UAB tissue procurement facility with IRB approval as previously described.
Plaque reduction assays for MCMV, GPCMV were performed on monolayers of GPL (GPCMV) or MEF (MCMV) cells prepared in six-well plates and incubated at 37°C for 2d to allow the cells to reach confluency. Media was then aspirated from the wells and 0.2ml of virus was added to each of three wells to yield 20–30 plaques in each well. The virus was allowed to adsorb to the cells for 1h and the plates were agitated every 15min. Compounds were diluted in assay media consisting of MEM with Earl’s salts supplemented with 2% FBS, L-glutamine, penicillin, and gentamycin. Solutions ranging from 0.0032–10μM (primary) or 0.032–100μM (secondary) were added to triplicate wells and the plates were incubated for various times, depending on the virus used. For MCMV and GPCMV, the cell monolayer was stained with 1% neutral red solution for 4h at which time the stain was aspirated and cells were washed with PBS. […]

diverse panel of viruses = assay: Broad antiviral screening, summary over all viruses; assay type: cell-based; details: across the panel of viruses; read-out: median EC50
Procedure: Each assay was performed in triplicate in 2 independent assays. In some cases different assays were used for the secondary screen, as alternate experimental procedures are able to measure differential effects on the viral life cycle (ie. qPCR for genome replication, plaque reduction for replication, assembly and release, etc.).

Human adenovirus type 5 = assay: Adenovirus virus yield (TCID50) assay in HeLa cells; assay type: cell-based; details: Human mastadenovirus C
Procedure: Human adenovirus type 5 was obtained from ATCC and cultured in HeLa cells under standard conditions.
Prior to assessing cell viability using MTS, supernatants were collected from plates and titrated to determine virus yield. Serial dilutions of supernatants were incubated on HeLa cells for 3 days. Following incubation, wells were visually scored for infection and TCID50, EC50, CC50 and SI were calculated for each sample.

[2] = test system: Epstein-Barr virus (EBV) Akata strain; assay: EBV primary assay, DNA hybridization in induced Akata cells; assay type: cell-based
Procedure: EBV Akata strain was assayed in Akata cells (John Sixbey, LSU) latently infected with EBV (and therefore oncogenic). Cells were maintained in RPMI 1640, (Mediatech) with 10% FBS (Hyclone), L-glutamine, penicillin and gentamicin.
For Primary assay, Akata cells latently infected with EBV were induced to undergo lytic infection by addition of 50μg/ml of a goat anti-human IgG [16] and a dose-range of verdinexor (0.032 to 100 μM) was added for 72hr. Denaturation buffer was added and an aliquot aspirated through an Immobilon nylon membrane (Millipore, Bedford, MA). Dried membranes were equilibrated in DIG Easy Hyb solution (Roche Diagnostics, Indianapolis, IN) at 56°C. Specific DIG-labeled probes for EBV (S1 Table). (Roche Diagnostics). Membranes with EBV DNA were hybridized overnight followed by washes in 0.2× SSC and 0.1× SSC both with 0.1% SDS. Detection of specifically bound DIG probe was performed with anti-DIG antibody (Roche Diagnostics). An image of the photographic film was captured and quantified with QuantityOne software (Bio-Rad), and the EC50 were interpolated.

histamine H1 receptor = histamine H1 receptor (Homo sapiens, UniProt P35367); assay: Histamine H1 receptor binding (off-target panel); details: Study No. KS-1016 and PE-50946871
[3] = Cytotoxicity in Akata cells (CellTiter-Glo), concurrent with EBV assays; assay type: cell-based; details: human
Procedure: Cytotoxicity assays: Concurrent assessment of cytotoxicity was also performed for each study in the same cell line and with the same compound exposure. For KSHV, cell viability was assessed with the CellTiter-Glo Luminescent Cell Viability Assay (Promega) using manufacturer’s protocol. Luminescence was quantified on a luminometer. Standard methods were used to calculate the 50% cytotoxic level (CC50). Cytotoxicity assay was performed in a manner analogous to KSHV (see above).

[4] = test system: 104 principal receptor/ligand interactions; assay: Off-target panel of in vitro protein binding assays; details: 10 μM; 104 receptor/ligand interactions
Procedure: Serum concentrations with Verdinexor have been previously established in in vivo models of influenza in both mice and ferrets. In mice receiving 10mg/kg and ferrets receiving 5mg/kg, max plasma concentration of verdinexor was approximately 1200 (ng/mL) however, the half life in mice was extended (6 hours) as compared to that of ferrets (2 hours). Serum protein binding of verdinexor in humans is 98.4%. […] A Phase 1, Randomized, Double-Blind, Placebo-Controlled, Sequential, Dose-Escalating Trial to Evaluate the Safety and Tolerability of Oral Verdinexor (KPT-335) in Healthy Adult Subjects was conducted in Nucleus Network, Melbourne, Victoria, Australia [ClinicalTrials.gov: NCT02431364]. No study results are currently posted for this study. Furthermore, a clinical study was submitted to the USA FDA on IND#122718. This phase 1a, Randomized, Double-Blind, Placebo-Controlled, Sequential, Dose-Escalating Trial of Single and Multi-Dose oral verdinexor (KPT-335) to Evaluate the Safety and Tolerability in Healthy Elderly Volunteers is yet to be initiated and recruit subjects.

HPV-11 = HPV-11 transient origin-plasmid replication assay in HEK293 cells (qPCR); assay type: cell-based, human papillomavirus; details: Human papillomavirus, HPV-11, primary screen
Procedure: HPV-11 and -18 were tested in HEK293 cells and primary human keratinocytes (PHK), respectively. PHKs were isolated from neonatal foreskins following circumcision according to IRB-approved protocols at UAB. They were grown in keratinocyte serum-free medium (Life Technologies) with mitomycin C-treated J2 feeder cells (Swiss 3T3 J2 fibroblasts; Elaine Fuchs, Rockefeller University). HEK 293 cells were maintained under standard conditions.
Quantification of virus was determined via transient replication of an HPV-11 replication origin-containing plasmid in HEK293 cells co-transfected with an HPV-11 replicative DNA helicase E1 and origin binding E2 protein [20]. 293 cells were cultured with test compounds added 4hr post-transfection for 2 days. Low molecular weight DNA was isolated, digested with Dpn1 and exonuclease III to eliminate unreplicated DNA. The Dpn1-resistant DNA was then subjected to qPCR analyses amplifying a small portion of the replication origin [20]. In a negative control, the E1 expression vector was omitted or cultures were treated with the inhibitor cidofovir.

histamine H1 receptor, sequence (P35367 whole entry, species assumed): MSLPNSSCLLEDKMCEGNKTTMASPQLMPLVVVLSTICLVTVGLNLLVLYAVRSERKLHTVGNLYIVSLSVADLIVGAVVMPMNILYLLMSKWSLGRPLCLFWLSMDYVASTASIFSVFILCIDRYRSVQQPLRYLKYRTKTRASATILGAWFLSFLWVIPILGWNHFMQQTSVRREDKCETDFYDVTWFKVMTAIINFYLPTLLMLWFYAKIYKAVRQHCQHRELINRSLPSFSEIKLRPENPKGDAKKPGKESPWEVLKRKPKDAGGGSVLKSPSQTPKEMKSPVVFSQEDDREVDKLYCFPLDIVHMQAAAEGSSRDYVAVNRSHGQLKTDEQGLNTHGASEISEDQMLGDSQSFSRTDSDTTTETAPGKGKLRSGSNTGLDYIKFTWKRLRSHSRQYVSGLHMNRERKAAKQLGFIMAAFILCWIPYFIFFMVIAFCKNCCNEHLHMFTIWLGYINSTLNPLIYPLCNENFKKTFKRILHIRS

SMILES: O=C(C=Cn1cnc(-c2cc(C(F)(F)F)cc(C(F)(F)F)c2)n1)NNc1ccccn1 (stereo in doubt) [verdinexor, (E)-3-[3-[3,5-bis(trifluoromethyl)phenyl]-1,2,4-triazol-1-yl]-N'-pyridin-2-ylprop-2-enehydrazide]
- CC50 at 6 d ([1]; Ad5 primary screen): 180 nM
- CC50 at 6 d ([1]; Ad5 secondary screen): 100 nM
- EC50 (Murine CMV strain Smith): 190 nM
- EC50 (diverse panel of viruses): 2000 nM
- EC50 (Human adenovirus type 5; Ad5, primary screen): > 180 nM
- EC50 (Human adenovirus type 5; Ad5, secondary screen): < 30 nM
- SI (Selectivity Index, CC50/EC50) ([2]; EBV, primary screen, DNA hybridization): < 1
- EC50 ([2]; human gammaherpesvirus 4, Akata): > 480 nM
- inhibition at 10 µM (histamine H1 receptor): 33%
- CC50 ([3]; EBV assays): < 680 nM
- CC50 ([3]; EBV primary screen): 680 nM
- CC50 ([3]; EBV secondary screen): 340 nM
- effect on off-target panel [4]: none of the enzymes, receptors, transporters, kinases, or cysteine proteases were significantly affected
- EC50 (HPV-11): 1650 nM
